Laboratory results taken from patent US7229630B2, “Stabilized formulations of alpha adrenergic receptor antagonists and the uses thereof” (Novalar Pharmaceuticals, Inc., priority 2002, dated 2007).
Structures can show the parent of a compound that is named as a salt.

Legend:
[1] = Effect of additives on stability at 60° C. (HPLC); assay type: physicochemical; conditions: for Rate Constant: zero-order
Description: The drug is monitored at a detection wavelength of 232 nm.
The additives in this study are selected from five groups of injectable excipients namely, tonicity modifiers (NaCl and d-mannitol), metal chelators (EDTA), antioxidants (sodium metabisulfite), complexing agents (α-cyclodextrin and niacinamide) and solvents (glycerol and polypropylene glycol). A tonicity modifier is required for adjusting the phentolamine mesylate solution to isotonic. […] Complexing agents were applied in the hope that a possible formation of an inclusion complex (by α-cyclodextrin) or stacking complex (by niacinamide) with phentolamine would modify the rate of hydrolytic degradation of the drug substance. Solvents were added to reduce the dielectric constant of the vehicle and were intended to slow the rate of degradation due to solvent polarity.
The pH value of the solutions was readjusted to pH 3.5, as required.
The 25% glycerol (25 g in 100 ml total volume with water) and 25% polypropylene glycol (25 g in 100 ml total volume with water) solutions had their buffer strength adjusted by addition of acetic acid followed by addition of 2 N NaOH for pH adjustment to pH 3.5 followed by addition of the drug to 0.1 mg/ml.
All samples were placed in 10 ml glass serum vials, stoppered with rubber closures with an inert coating (Daikyo Flurotec by WEST Pharmaceutical), and sealed with flip-top caps after sampling. Vials were placed at 60° C. after the weights were recorded.
Sampling occurred at the initial time point and on days 2, 7, and 14. Vials were weighed, sampled, sealed, re-weighed, and replaced under the selected storage condition until testing at the subsequent time point. Records indicate no significant weight loss during storage.

[2] = system: human subjects; experiment: Reversal of local anesthesia (polocaine with levonordefrin) by LARA vs saline, bilateral injection; assay type: in vivo; conditions: three subjects, 1.6 ml of 0.05 mg/ml phentolamine mesylate
Protocol: An injection of the physiological saline vehicle (without phentolamine mesylate) served as the control. […] This was followed by injection of the phentolamine mesylate containing local anesthetic reversal agent (LARA) into one side of the oral cavity, and injection of the saline vehicle (control) solution into the opposite side of the oral cavity. The time to reversal of the local anesthetic effect on both sides was then recorded to determine whether there is a difference between the two sides.
The local anesthetic used was 2% polocaine (mepivacaine hydrochloride) with levonordefrin (1:20,000=0.05 mg/ml) (levonordefrin injection, USP) (Astra USA, Inc., Westborough, Mass. 01581). Levonordefrin is a sympathomimetic amine with a pharmacological profile similar to that of epinephrine, but with a lower potency.
Three healthy, male human subjects, age 34–50, volunteered to have local anesthetic injected in the mouth bilaterally under the lip in an easily repeatable location. The exact time of each injection was recorded. The position chosen was above (apical) the prominence of the root of the upper cuspid teeth. This is a common site selected to numb the cuspids, lateral incisors and upper lip. The volume of the local anesthetic injected was 1.7+0.1 ml on each side of the mouth. […]

[3] = EDTA 0.7 mg/ml, sodium acetate pH 3.5, 60° C., Day 14
[4] = Glycerol 25% w/v, sodium acetate pH 3.5, 60° C., Day 7
[5] = NaCl 50 mg/ml, sodium acetate pH 3.5, 60° C., Day 0
[6] = NaCl 50 mg/ml, sodium acetate pH 3.5, 60° C., Day 2
[7] = NaCl 50 mg/ml, sodium acetate pH 3.5, 60° C., Day 7
[8] = NaCl 50 mg/ml, sodium acetate pH 3.5, 60° C., Day 14
[9] = Niacinamide 50 mg/ml, sodium acetate pH 3.5, 60° C., Day 0
[10] = Niacinamide 50 mg/ml, sodium acetate pH 3.5, 60° C., Day 2
[11] = Niacinamide 50 mg/ml, sodium acetate pH 3.5, 60° C., Day 7
[12] = Niacinamide 50 mg/ml, sodium acetate pH 3.5, 60° C., Day 14
[13] = No additive, pH 3.5, 60° C., Day 0
[14] = No additive, pH 3.5, 60° C., Day 2
[15] = No additive, pH 3.5, 60° C., Day 7
[16] = No additive, pH 3.5, 60° C., Day 14
[17] = Sodium metabisulfite 0.5 mg/ml, sodium acetate pH 3.5, 60° C., Day 0
[18] = Sodium metabisulfite 0.5 mg/ml, sodium acetate pH 3.5, 60° C., Day 7
[19] = Sodium metabisulfite 0.5 mg/ml, sodium acetate pH 3.5, 60° C., Day 14
[20] = d-Mannitol 40 mg/ml, sodium acetate pH 3.5, 60° C., Day 0
[21] = d-Mannitol 40 mg/ml, sodium acetate pH 3.5, 60° C., Day 2
[22] = d-Mannitol 40 mg/ml, sodium acetate pH 3.5, 60° C., Day 7
[23] = d-Mannitol 40 mg/ml, sodium acetate pH 3.5, 60° C., Day 14

Cc1ccc(N(CC2=NCCN2)c2cccc(O)c2)cc1 [Phentolamine Mesylate, phentolamine mesylate]
Phentolamine Purity ([1]; EDTA 0.7 mg/ml, sodium acetate pH 3.5, 60° C., Day 0): 99 % Peak Area | Phentolamine Purity ([1]; EDTA 0.7 mg/ml, sodium acetate pH 3.5, 60° C., Day 2): 99 % Peak Area | Phentolamine Purity ([1]; EDTA 0.7 mg/ml, sodium acetate pH 3.5, 60° C., Day 7): 99 % Peak Area | Phentolamine Concentration [1, 3]: 99 µg/mL | Phentolamine Purity [1, 3]: 98 % Peak Area | Phentolamine Purity ([1]; Glycerol 25% w/v, sodium acetate pH 3.5, 60° C., Day 0): 98 % Peak Area | Phentolamine Purity ([1]; Glycerol 25% w/v, sodium acetate pH 3.5, 60° C., Day 2): 98 % Peak Area | Phentolamine Concentration [1, 4]: 120 µg/mL | Phentolamine Purity [1, 4]: 93 % Peak Area | Phentolamine Purity ([1]; Glycerol 25% w/v, sodium acetate pH 3.5, 60° C., Day 14): 94 % Peak Area | Phentolamine Concentration [1, 5]: 94 µg/mL | Phentolamine Purity [1, 5]: 94 % Peak Area | Phentolamine Concentration [1, 6]: 98 µg/mL | Phentolamine Purity [1, 6]: 99 % Peak Area | Phentolamine Concentration [1, 7]: 80 µg/mL | Phentolamine Purity [1, 7]: 89 % Peak Area | Phentolamine Concentration [1, 8]: 74 µg/mL | Phentolamine Purity [1, 8]: 85 % Peak Area | Phentolamine Concentration [1, 9]: 90 µg/mL | Phentolamine Purity [1, 9]: 99 % Peak Area | Phentolamine Concentration [1, 10]: 90 µg/mL | Phentolamine Purity [1, 10]: 100 % Peak Area | Phentolamine Concentration [1, 11]: 78 µg/mL | Phentolamine Purity [1, 11]: 93 % Peak Area | Phentolamine Concentration [1, 12]: 92 µg/mL | Phentolamine Purity [1, 12]: 90 % Peak Area | Phentolamine Concentration [1, 13]: 90 µg/mL | Phentolamine Purity [1, 13]: 99 % Peak Area | Phentolamine Concentration [1, 14]: 92 µg/mL | Phentolamine Purity [1, 14]: 98 % Peak Area | Phentolamine Concentration [1, 15]: 82 µg/mL | Phentolamine Purity [1, 15]: 98 % Peak Area | Phentolamine Concentration [1, 16]: 77 µg/mL | Phentolamine Purity [1, 16]: 97 % Peak Area | Phentolamine Purity ([1]; Polypropylene glycol 25% w/v, sodium acetate pH 3.5, 60° C., Day 0): 93 % Peak Area | Phentolamine Purity ([1]; Polypropylene glycol 25% w/v, sodium acetate pH 3.5, 60° C., Day 2): 97 % Peak Area | Phentolamine Purity ([1]; Polypropylene glycol 25% w/v, sodium acetate pH 3.5, 60° C., Day 7): 93 % Peak Area | Phentolamine Purity ([1]; Polypropylene glycol 25% w/v, sodium acetate pH 3.5, 60° C., Day 14): 90 % Peak Area | Phentolamine Concentration [1, 17]: 97 µg/mL | Phentolamine Purity [1, 17]: 97 % Peak Area | Phentolamine Purity ([1]; Sodium metabisulfite 0.5 mg/ml, sodium acetate pH 3.5, 60° C., Day 2): 99 % Peak Area | Phentolamine Concentration [1, 18]: 84 µg/mL | Phentolamine Purity [1, 18]: 95 % Peak Area | Phentolamine Concentration [1, 19]: 74 µg/mL | Phentolamine Purity [1, 19]: 92 % Peak Area | Phentolamine Concentration [1, 20]: 98 µg/mL | Phentolamine Purity [1, 20]: 96 % Peak Area | Phentolamine Concentration [1, 21]: 96 µg/mL | Phentolamine Purity [1, 21]: 97 % Peak Area | Phentolamine Concentration [1, 22]: 98 µg/mL | Phentolamine Purity [1, 22]: 96 % Peak Area | Phentolamine Concentration [1, 23]: 91 µg/mL | Phentolamine Purity [1, 23]: 97 % Peak Area | impact of additive on stability ([1]; d-Mannitol and disodium EDTA, based on the rate constant, 60° C.): improve stability | impact of additive on recovery vs no-additive control ([1]; sodium metabisulfite, NaCl, glycerol, polypropylene glycol and niacinamide, 60° C.): negative impact on the recovery | Rate Constant ([1]; EDTA 0.7 mg/ml, sodium acetate pH 3.5, 60° C.): 0.438 µg/mL/day | Rate Constant ([1]; Glycerol 25% w/v, sodium acetate pH 3.5, 60° C.): 0.726 µg/mL/day | Rate Constant ([1]; NaCl 50 mg/ml, sodium acetate pH 3.5, 60° C.): 1.663 µg/mL/day | Rate Constant ([1]; Niacinamide 50 mg/ml, sodium acetate pH 3.5, 60° C.): -0.026 µg/mL/day | Rate Constant ([1]; No additive, pH 3.5, 60° C.): 1.027 µg/mL/day | Rate Constant ([1]; Polypropylene glycol 25% w/v, sodium acetate pH 3.5, 60° C.): 1.019 µg/mL/day | Rate Constant ([1]; Sodium metabisulfite 0.5 mg/ml, sodium acetate pH 3.5, 60° C.): 1.903 µg/mL/day | Rate Constant ([1]; d-Mannitol 40 mg/ml, sodium acetate pH 3.5, 60° C.): 0.416 µg/mL/day | Rate Constant ([1]; α-Cyclodextrin 50 mg/ml, sodium acetate pH 3.5, 60° C.): 0.501 µg/mL/day | Phentolamine Purity ([1]; α-Cyclodextran 50 mg/ml, sodium acetate pH 3.5, 60° C., Day 0): 98 % Peak Area | Phentolamine Purity ([1]; α-Cyclodextran 50 mg/ml, sodium acetate pH 3.5, 60° C., Day 2): 99 % Peak Area | Phentolamine Purity ([1]; α-Cyclodextran 50 mg/ml, sodium acetate pH 3.5, 60° C., Day 7): 98 % Peak Area | Phentolamine Purity ([1]; α-Cyclodextran 50 mg/ml, sodium acetate pH 3.5, 60° C., Day 14): 98 % Peak Area | Phentolamine Concentration ([1]; α-Cyclodextrin 50 mg/ml, sodium acetate pH 3.5, 60° C., Day 2): 99 µg/mL | Phentolamine Concentration ([1]; α-Cyclodextrin 50 mg/ml, sodium acetate pH 3.5, 60° C., Day 7): 96 µg/mL | Phentolamine Concentration ([1]; α-Cyclodextrin 50 mg/ml, sodium acetate pH 3.5, 60° C., Day 14): 94 µg/mL | impact of additive on stability ([1]; α-cyclodextrin, based on purity value, 60° C.): negligible | side-effects [2]: no side-effects of any kind were noted
